Test results as given in ChEMBL document CHEMBL1129522, “Inhibitors of acyl-CoA:cholesterol O-acyltransferase. 17. Structure-activity relationships of several series of compounds derived from N-chlorosulfonyl isocyanate” (J Med Chem, 1996).
Where “and” joins values, the source holds several entries; their conditions need not be identical. Equal values may be shown once.

Tests used:
[1] = molecular target: T1, Sterol O-acyltransferase 1 (Rattus norvegicus, UniProt O70536); assay: In vitro inhibitory activity against acyl coenzyme A:cholesterol acyltransferase 1 in microsomes of rat liver
T1 sequence (O70536 whole entry): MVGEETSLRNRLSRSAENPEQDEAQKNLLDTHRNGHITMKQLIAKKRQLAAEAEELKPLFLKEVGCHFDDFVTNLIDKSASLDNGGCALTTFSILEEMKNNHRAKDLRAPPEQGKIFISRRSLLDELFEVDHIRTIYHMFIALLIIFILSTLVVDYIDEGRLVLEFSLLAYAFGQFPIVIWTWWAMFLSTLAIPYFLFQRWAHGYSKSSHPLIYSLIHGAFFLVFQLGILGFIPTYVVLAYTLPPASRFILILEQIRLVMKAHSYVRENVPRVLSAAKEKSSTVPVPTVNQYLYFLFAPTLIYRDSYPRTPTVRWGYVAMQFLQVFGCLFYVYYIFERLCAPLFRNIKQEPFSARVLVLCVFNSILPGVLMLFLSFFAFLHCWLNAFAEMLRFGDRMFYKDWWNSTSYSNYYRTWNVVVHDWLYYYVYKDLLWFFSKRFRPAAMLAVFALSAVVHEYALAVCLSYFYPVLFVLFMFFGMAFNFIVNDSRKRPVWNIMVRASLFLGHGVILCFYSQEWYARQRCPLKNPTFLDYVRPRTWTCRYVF

[2] = molecular target: T2, Sterol O-acyltransferase 1 (Rattus norvegicus) (UniProt O70536); assay: Chronic in vivo activity was measured by the concentration of high density lipoproteins (HDL) in cholesterol fed rats; assay type: functional, organism-based
T2 sequence (whole entry): T1 sequence (O70536 whole entry)

[3] = molecular target: T2, Sterol O-acyltransferase 1 (Rattus norvegicus); assay: Chronic in vivo activity was measured by the total cholesterol concentration levels in cholesterol fed rats; assay type: functional, organism-based
Rattus norvegicus = assay: Acute in vivo activity measured by total plasma cholesterol concentration levels (TC) at 30 mg/kg dose; assay type: functional
[4] = molecular target: T2, Sterol O-acyltransferase 1 (Rattus norvegicus); assay: Acute in vivo activity was measured by the total plasma cholesterol concentration levels(TC) at dose 3 mg/kg; assay type: functional, organism-based; set-up: dose 3 mg/kg

Compound | IC50 [1] [µM] | Delta HDL [2] | Delta TC [3] | Delta TC (Rattus norvegicus) [%] | Delta TC [4]
Cc1cc(C(C)(C)C)c(OC(=O)NS(=O)(=O)Oc2c(C(C)C)cccc2C(C)C)c(C(C)(C)C)c1 | 7.7 | 205% | -66% | -72 | -52%
CC(C)c1cccc(C(C)C)c1OC(=O)N(C)S(=O)(=O)Oc1c(C(C)C)cccc1C(C)C | 50 |  |  | -64 | -18%
CCCCCCN(CCCCCC)S(=O)(=O)NC(=O)Nc1c(C(C)C)cccc1C(C)C | 0.51 | 207% | -69% |  | -63%
CCCCCCN(CCCCCC)S(=O)(=O)NC(=O)Oc1c(C(C)C)cccc1C(C)C | 4.2 | 144% | -75% |  | -74%
CC(C)c1cccc(C(C)C)c1OS(=O)(=O)NC(=O)Oc1c(-c2ccccc2)cccc1-c1ccccc1 | 12 | 21% | -38% | -46 | 
CCCCCCCCCCCCCCCCCCOS(=O)(=O)NC(=O)Nc1c(C(C)C)cccc1C(C)C | 14 | 30% | -38% |  | -5%
CC(C)c1cccc(C(C)C)c1NC(=O)NS(=O)(=O)N(C)CCc1ccccc1 | 1.7 | 43% | -45% |  | -38%
CC(C)c1cccc(C(C)C)c1OC(=O)NS(=O)(=O)N(Cc1ccccc1)C(C)C | 12 | 114% | -69% |  | -59%
CCCCN(CCCC)S(=O)(=O)NC(=O)Oc1c(C(C)C)cccc1C(C)C |  | 109% and 113% | -69% and -72% |  | -64% and -47%
Cc1cccc(C)c1OS(=O)(=O)NC(=O)Oc1c(C(C)C)cccc1C(C)C | > 50 |  |  | -58 | -37%
CC(C)c1cccc(C(C)C)c1NC(=O)NS(=O)(=O)N(CC1CCCO1)CC1CCCO1 (stereo unspecified) | 1.7 | 123% | -56% |  | -45%
CCCCCN(CCCCC)S(=O)(=O)NC(=O)Nc1c(C(C)C)cccc1C(C)C | 0.42 | 193% | -67% |  | -68%
CC(C)CCN(CCC(C)C)S(=O)(=O)NC(=O)Nc1c(C(C)C)cccc1C(C)C | 0.42 | 133% | -68% |  | -66%
CCCCCCCCCCCCOC(=O)NS(=O)(=O)Oc1c(C(C)C)cccc1C(C)C | 13 |  |  | -62 | 1%
CCCCCCCCN(C)S(=O)(=O)NC(=O)Nc1c(C(C)C)cccc1C(C)C | 3.8 | 123% | -64% |  | -57%
CC(C)c1cccc(C(C)C)c1NC(=O)NS(=O)(=O)N(C(C)C)C1CCCCC1 | 0.36 | 94% | -63% |  | -60%
CCC(C)N(C(C)CC)S(=O)(=O)NC(=O)Nc1c(C(C)C)cccc1C(C)C (stereo unspecified) | 0.1 | 86% | -62% |  | -65%
CC(C)c1cccc(C(C)C)c1OS(=O)(=O)NC(=O)OC1[C@@H](C(C)C)CCC[C@H]1C(C)C (stereo partly specified) | 3.6 |  |  | -70 | -29%
CC(C)CN(CC(C)C)S(=O)(=O)NC(=O)Nc1c(C(C)C)cccc1C(C)C | 0.42 | 122% | -62% |  | -61%
COc1cc(C(C)(C)C)c(OC(=O)NS(=O)(=O)Nc2c(C(C)C)cccc2C(C)C)c(C(C)(C)C)c1 | 15 | 86% | -47% |  | -29%
CC(C)c1cccc(C(C)C)c1NC(=O)NS(=O)(=O)N(C1CCCCC1)C1CCCCC1 | 0.23 | 92% | -35% |  | -60%
CC(C)c1cccc(C(C)C)c1OC(=O)NS(=O)(=O)N(C(C)C)C1CCCCC1 | 5.1 | 188% | -71% |  | -49%
CC(C)c1cccc(C(C)C)c1OC(=O)NS(=O)(=O)Oc1c(C(C)(C)C)cccc1C(C)(C)C | 50 |  |  | -55 | -46%
CCCCCCOS(=O)(=O)NC(=O)Oc1c(C(C)C)cccc1C(C)C | 40 |  |  | -52 | -18%
CCCCCCCCCCCCCCN(C)S(=O)(=O)NC(=O)Nc1c(C(C)C)cccc1C(C)C | 0.33 | 19% | -51% |  | -65%
CCCCCCCCN(CCCCCCCC)S(=O)(=O)NC(=O)Oc1c(C(C)C)cccc1C(C)C | 58 | 156% | -80% |  | -67%
CCCCCCC(C)OC(=O)NS(=O)(=O)Oc1c(C(C)C)cccc1C(C)C (stereo unspecified) | 26 |  |  | -32 | 

Compound | IC50 [1] [µM] | Delta HDL [2] | Delta TC [3] | Delta TC (Rattus norvegicus) [%] | Delta TC [4]
CC(C)c1cccc(C(C)C)c1OS(=O)(=O)NC(=O)O[C@@H]1C[C@H](C)CCC1C(C)C (stereo partly specified) | 21 |  |  | -40 | 
CC(C)(C)c1cccc(C(C)(C)C)c1OC(=O)NS(=O)(=O)Oc1c(C(C)(C)C)cccc1C(C)(C)C | 30 |  |  | -18 | 
COc1cc(C(C)(C)C)c(OC(=O)NS(=O)(=O)Oc2c(C(C)C)cccc2C(C)C)c(C(C)(C)C)c1 |  |  | -62% and -76% |  | -42% and -58%
CCCCCN(CCCCC)S(=O)(=O)NC(=O)Oc1c(C(C)C)cccc1C(C)C | 1.3 | 166% | -73% |  | -66%
COc1cc(OC)c(OC(=O)NS(=O)(=O)Oc2c(C(C)C)cccc2C(C)C)c(OC)c1 | > 25 |  |  | -5 | 
CC(C)c1cccc(C(C)C)c1OS(=O)(=O)NC(=O)Oc1ccc(F)cc1 | > 50 |  |  | -21 | 
COc1cccc(OC)c1OC(=O)[N-]S(=O)(=O)Oc1c(C(C)C)cccc1C(C)C.[Na+] | 48 |  |  | -49 | 
Cc1cc(C(C)(C)C)c(OC(=O)NS(=O)(=O)Oc2ccccc2)c(C(C)(C)C)c1 | 90 |  |  | -65 | -15%
CC(C)c1cccc(C(C)C)c1OC(=O)NS(=O)(=O)N(c1ccccc1)c1ccccc1 | 58 | 320% | -37% |  | -46%
CCc1cccc(CC)c1COC(=O)NS(=O)(=O)Oc1c(C(C)C)cccc1C(C)C | 20 |  |  | -2 | 
CCCCCCCCCCCCCCCCOS(=O)(=O)NC(=O)Oc1c(C(C)C)cccc1C(C)C | 10.3 |  |  | -60 | -42%
CCCCCCC(C)OS(=O)(=O)NC(=O)Nc1c(C(C)C)cccc1C(C)C (stereo unspecified) | 35 |  |  | -51 | 10%
CC(C)c1cccc(C(C)C)c1OC(=O)NS(=O)(=O)Oc1c(C(C)C)cccc1C(C)C |  | 233% and 345% | -64% and -68% |  | -59% and -54%
CC(C)c1cccc(C(C)C)c1OC(=O)NS(=O)(=O)N(C(C)C)C(C)C | 15 | 82% | -59% |  | -65%
CC(C)c1cccc(C(C)C)c1OS(=O)(=O)NC(=O)OC1[C@H](C(C)C)CCC[C@H]1C(C)C (relative stereo) | 5.7 |  |  | -35 | 
CCCCCCCCCCCCOS(=O)(=O)NC(=O)Nc1c(C(C)C)cccc1C(C)C |  |  | -55% and -52% |  | -34% and -53%
CC(C)c1cc([N+](=O)[O-])cc(C(C)C)c1OC(=O)NS(=O)(=O)Oc1c(C(C)C)cccc1C(C)C | > 50 |  |  | 18 | 
CCCCCCOS(=O)(=O)NC(=O)Oc1c(C(C)(C)C)cc(C)cc1C(C)(C)C | 95 |  |  | -56 | -14%
COc1cc(C(C)(C)C)c(OC(=O)[N-]S(=O)(=O)Oc2c(C(C)C)cccc2C(C)C)c(C(C)(C)C)c1.[Na+] | 10 |  |  | -60 | 
CC(C)c1cccc(C(C)C)c1NC(=O)NS(=O)(=O)N(c1ccccc1)c1ccccc1 | 16 | 170% | -36% |  | -27%
CCCCCCCCN(C)S(=O)(=O)NC(=O)Oc1c(C(C)C)cccc1C(C)C | 22 | 88% | -64% |  | -57%
CC(C)c1cccc(C(C)C)c1OS(=O)(=O)NC(=O)OC12CC3CC(CC(C3)C1)C2 | 13 |  |  | -10 | 
CC(C)c1cccc(C(C)C)c1OC(=O)NS(=O)(=O)Oc1c(C(C)C)cc(O)cc1C(C)C | > 50 |  |  | -15 | 
CC(C)c1cc(Br)cc(C(C)C)c1OC(=O)NS(=O)(=O)Oc1c(C(C)C)cccc1C(C)C | 31 |  |  | -29 | 
CC(C)c1cccc(C(C)C)c1OS(=O)(=O)NC(=O)Oc1ccc(Cl)cc1 | 97 |  |  | -8 | 
CC(C)c1cccc(C(C)C)c1OS(=O)(=O)NC(=O)Oc1ccc(F)cc1F | > 50 |  |  | -5 | 
CC(C)c1cc(F)cc(C(C)C)c1OC(=O)NS(=O)(=O)Oc1c(C(C)C)cccc1C(C)C | > 50 | 143% | -52% | -72 | 
